Where a name gives a salt, the structure may show the parent alone. Read-outs that look alike come from different tables or passages of the source. Marks after values point to notes of the source that are not given here.
Legend:
roaches = type: in vivo, cockroaches
Procedure: An ˜500 mL jar is coated at the top with a thin film of petroleum jelly and covered with a plastic petri dish as a lid. […] The filter paper is bent in half to form a ‘tent’, as shown, so the roaches are not forced to contact the filter paper. The lid is removed, and a compound or composition to be tested is added to the top of the paper, at the bend. The lid is replaced and the insects monitored for activity at 15, 30, 45 minutes, then 1, 2, 4 and 24 hours post exposure.
This is done by taking multiple testes and plotting them on a dose-response curve such as the GraphPad® Prism® computer program. This program interpolates to find the midpoint of any sigmoidal dose-response curve.
The data in Table 1 can graphed as a sigmoidal dose response, much the same as any other biological data. […] The mid-Point of the dose-response curve is given by the computer and used to compare potencies. […] It is also necessary to understand the range of the testing. While the lower limit is in the 1 to 3 microliter range, the upper limit is about 250 microliters. Adding more material than that to the filter paper will allow the substance to drip onto the glass, where contact with the insects might occur. […] Several compounds are tested in a 2 liter (L) jar rather than the 0.5 L jars which are the primary assay.

[1] = test system: insects of the blattella species; assay: Direct contact spray knockdown; type: in vivo
Description: A formula is created consisting exclusively of ethylene glycol diformate. This diformate is placed in aerosol cans and pressurized with carbon dioxide as propellant. This material, when sprayed on insects of the blattella species, results in knockdown in under 30 seconds. When administered in the vapor phase according to Example 1, in a 500 milliliter jar, 15 microliters of the formula in the vapor phase kills all the insects in one hour.
Raid (#271) Roach and Ant Killer and Treatment is purchased and repeatedly tested in the assay of Example 1, and in a direct contact test. It did knowndown both the peripleneta species (17.2+/−3.2 seconds) and the blattella species (kill time 16 seconds) when directly sprayed on the insects.

[2] = 5 µL, ~500 mL jar, 6 insects in this jar

Question: With Cc1coc2c1CC[C@@H](C)C2 [(+)-Menthofuran, (+) menthofuran] as the compound, how does the “LD50 (vapor phase) in a 2 L jar” value (roaches; 2 L jar) read?
Answer: 15 microliters per 2 L headspace

Question: What about the “Percent Dead Only at 4 hours” value (roaches; [2]) of the same compound?
Answer: 33%*

Question: And the “Percent Dead at 24 hours” value (roaches; [2])?
Answer: 33%*

Question: What about the “Percent Distressed or Dead at 4 hours” value (roaches; [2]) of the same compound?
Answer: 33%*

Question: And the “Percent Dead Only at 4 hours” value (roaches; 10 µL (repeat), ~500 mL jar)?
Answer: 40%

Question: What about the “Percent Dead at 24 hours” value (roaches; 10 µL (repeat), ~500 mL jar) of the same compound?
Answer: 40%

Question: And the “Percent Distressed or Dead at 4 hours” value (roaches; 10 µL (repeat), ~500 mL jar)?
Answer: 40%

Question: And the “Percent Dead Only at 4 hours” value (roaches; 10 µL, ~500 mL jar)?
Answer: 100%

Question: What about the “Percent Dead at 24 hours” value (roaches; 10 µL, ~500 mL jar) of the same compound?
Answer: 80%

Question: What about the “Percent Distressed or Dead at 4 hours” value (roaches; 10 µL, ~500 mL jar) of the same compound?
Answer: 100%

Question: And the “Percent Dead Only at 4 hours” value (roaches; 15 µL, ~500 mL jar)?
Answer: 100%

Question: And the “Percent Dead at 24 hours” value (roaches; 15 µL, ~500 mL jar)?
Answer: 100%

Question: And the “Percent Distressed or Dead at 4 hours” value (roaches; 15 µL, ~500 mL jar)?
Answer: 100%

Question: And the “Percent Dead Only at 4 hours” value (roaches; 20 µL, ~500 mL jar)?
Answer: 100%

Question: And the “Percent Dead at 24 hours” value (roaches; 20 µL, ~500 mL jar)?
Answer: 100%

Question: What about the “Percent Distressed or Dead at 4 hours” value (roaches; 20 µL, ~500 mL jar) of the same compound?
Answer: 100%

Question: And the “Percent Dead Only at 4 hours” value (roaches; 33 µL, ~500 mL jar)?
Answer: 100%

Question: And the “Percent Dead at 24 hours” value (roaches; 33 µL, ~500 mL jar)?
Answer: 100%

Question: And the “Percent Distressed or Dead at 4 hours” value (roaches; 33 µL, ~500 mL jar)?
Answer: 100%

Question: And the “LD50 (vapor phase)” value (roaches; ~500 mL jar)?
Answer: 7.2 microliters/500 milliliters headspace

Question: Which “24 hr LD50 (vapor phase)” value (roaches; ~500 mL jar) does the source give for CC(C)(C)OC=O [compound 2-1, tert-butyl formate] here?
Answer: 40 microliters per 500 milliliters headspace

Question: For O=COC1CCCC1 [compound 2-2, cyclopentyl formate], which “24 hr LD50 (vapor phase)” value (roaches; ~500 mL jar) is on record?
Answer: 17 microliters per 500 milliliters headspace

Question: What does the source list for O=COCCOC=O [ethylene glycol diformate]?
Answer: Insects killed in the vapor phase (roaches; 15 microliters of the formula, 500 milliliter jar, one hour): all; LD50 (vapor phase) (roaches; in a 500 milliliter jar): approximately 7.5 microliters; Relative potency within the diformate ester series (in words) (roaches; in vivo): most potent compound of the series; Knockdown time when sprayed on insects [1]: under 30 seconds

Question: How did the “LD50 (vapor phase)” value (roaches; ~500 mL jar) turn out when C=CCc1ccc(O)c(OC)c1 [eugenol, reference compound] was run?
Answer: > 300 milligrams/500 milliliters

Question: How did the “Fraction of the roaches that die in 24 hrs” value (roaches; individually tested at 29 milligrams/500 milliliters, 24 hrs) turn out when (R) (−) carvone was run?
Answer: ⅕
